The target in one assay is T1, Human GnRH receptor (Homo sapiens, UniProt P30968).
T1 construct: expressed in transfected cells; host or cells: CHO (Chinese hamster ovary) cells, membrane fraction
T1 sequence (P30968 1-328): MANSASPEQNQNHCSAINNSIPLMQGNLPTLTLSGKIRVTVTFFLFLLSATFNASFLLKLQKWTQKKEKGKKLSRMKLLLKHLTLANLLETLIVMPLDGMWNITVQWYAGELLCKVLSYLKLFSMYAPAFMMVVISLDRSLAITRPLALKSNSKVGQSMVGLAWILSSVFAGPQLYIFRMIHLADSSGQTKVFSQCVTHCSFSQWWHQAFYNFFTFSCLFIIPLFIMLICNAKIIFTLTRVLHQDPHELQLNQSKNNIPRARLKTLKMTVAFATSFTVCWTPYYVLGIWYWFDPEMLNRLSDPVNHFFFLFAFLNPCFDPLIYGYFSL
Kind of assay: ^125 I-leuprolerin binding inhibition, human GnRH receptor-expressed CHO cell membrane fraction. Conditions: 25° C. for 60 minutes, read-out: GnRH-receptor binding inhibitory activity (IC50, μM) Man. The method, then:
A tube was filled with 10 μl of an aqueous solution of leuprolerin (3×10^4 M) and lactoperoxidase (0.01 mg/ml) followed by addition of 10 μl of Na^125 I solution (37 MBq). After stirring, 10 μl of 0.001% H2 O2 was added and the reaction was conducted at room temperature for 20 minutes. The reaction was stopped by adding 700 μl of 0.05% TFA and the reaction mixture was subjected to reversed-phase HPLC under the conditions set forth below. ^125 I-leuprolerin was eluted with a retention time of 26-27 minutes. […] To the sediment was added 10 ml of a cell homogenate buffer (10 mM NaHCO3, 5 mM EDTA, pH 7.5) and the mixture was homogenized using a Polytron homogenizer. The homogenate was centrifuged at 400 xg for 15 minutes and the supernatant was transferred to an ultracentrifuge cuvette and centrifuged at 100,000 xg for 1 hour to prepare a membrane fraction pellet. This pellet was suspended in 2 ml of the assay buffer and further centrifuged at 100,000 xg for 1 hour. The membrane fraction recovered as a pellet was resuspended in 20 ml of the assay buffer, distributed into vials, preserved at -80° C., and reconstituted before use. The rat and human membrane fractions prepared under (B) and (D) were respectively diluted with the assay buffer to make 200 μg/ml each and 188 μl aliquots of each dilution were distributed into tubes. The bovine membrane fraction prepared under (C) was diluted with the assay buffer to make 750 μg/ml and 188 μl aliquots of the dilution were distributed into tubes. When the rat anterior pituitary membrane fraction was used, 2 μl of 0.1 mM compound/60% dimethyl sulfoxide (DMSO) and 10 μl of 38 nM ^125 I-leuprolerin were concurrently added. […] For determination of maximum binding, a reaction mixture was prepared by adding 2 μl of 60% DMSO and 10 μl of 38 nM ^125 I-leuprolerin. For determination of non-specific binding, a reaction mixture was prepared using 2 μl of 100 μM leuprolerin/60% DMSO and 10 μl of […] ^125 I-leuprolerin. When the rat and bovine anterior pituitary membrane fractions were used, each reaction was carried out at 4° C. for 90 minutes. On the other hand, when the human GnRH receptor-expressed CHO cell membrane fraction was used, the reaction was conducted at 25° C. for 60 minutes. After completion of the reaction, the reaction mixture was suction-filtered through a polyethyleneimine-treated Whatman glass filter (GF-F) [trademark;whatman]. After filtration, the radioactivity of the residual ^125 I-leuprolerin on the filter was measured using a γ-counter. The computation formula of (TB-SB)/(TB-NSB)×100 (SB=radioactivity bound in the presence of the test compound, TB=maximum amount of radioactivity bound, NSB=amount of radioactivity nonspecifically bound) was calculated to find the binding inhibition rate for the test compound. Moreover, the inhibition rate was determined by varying the concentration of each test compound and the concentration of the compound causing 50% inhibition of binding (IC50 value) was calculated by Hill plot.

The target in another assay is T2, Rat GnRH Receptor (Rattus norvegicus, UniProt P30969).
T2 construct: from tissue; host or cells: anterior pituitary of male Wistar rats (8 weeks old), membrane fraction
T2 sequence (P30969 1-327): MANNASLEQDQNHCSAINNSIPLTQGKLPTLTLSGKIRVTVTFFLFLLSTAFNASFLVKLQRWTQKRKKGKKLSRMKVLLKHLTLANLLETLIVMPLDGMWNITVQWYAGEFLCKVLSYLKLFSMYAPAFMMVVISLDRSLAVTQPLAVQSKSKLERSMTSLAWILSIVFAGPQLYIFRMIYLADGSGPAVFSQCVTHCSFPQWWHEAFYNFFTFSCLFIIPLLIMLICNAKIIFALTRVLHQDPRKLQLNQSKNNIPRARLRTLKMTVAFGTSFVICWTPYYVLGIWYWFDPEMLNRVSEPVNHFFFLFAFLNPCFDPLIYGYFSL
Kind of assay: ^125 I-leuprolerin binding inhibition, rat anterior pituitary membrane fraction. Also noted: species or system rat (Wistar). Conditions: 4° C. for 90 minutes, read-out: GnRH-receptor binding inhibitory activity (IC50, μM) Rat. The method, then: A tube was filled with 10 μl of an aqueous solution of leuprolerin (3×10^4 M) and lactoperoxidase (0.01 mg/ml) followed by addition of 10 μl of Na^125 I solution (37 MBq). After stirring, 10 μl of 0.001% H2 O2 was added and the reaction was conducted at room temperature for 20 minutes. The reaction was stopped by adding 700 μl of 0.05% TFA and the reaction mixture was subjected to reversed-phase HPLC under the conditions set forth below. ^125 I-leuprolerin was eluted with a retention time of 26-27 minutes. Forty rats (8 weeks old, male) of Wistar strain were decapitated under no anesthesia and the anterior pituitary isolated from each animal was washed with an ice-cooled homogenate buffer (25 mM Tris (tris(hydroxylmethyl)aminomethane)-HCl, 0.3M sucrose, 1 mM EGTA (ethylene-bis(oxyethylenenitrilo)tetraacetic acid), 0.25 mM PMSF (phenylmethylsulfonyl fluoride), 10 U/ml aprotinin, 1 μg/ml pepstatin, 20 μg/ml leupeptin, 100 μg/ml phosphoramidon, 0.03% sodium azide; pH 7.5). The anterior pituitary was suspended in 2 ml of the same homogenate buffer as above and homogenized using a Polytron homogenizer. The homogenate thus prepared was centrifuged at 700 xg for 15 minutes and the supernatant was transferred to an ultracentrifuge cuvette and further centrifuged at 100,000 xg for 1 hour to provide a membrane fraction pellet. This pellet was suspended in 2 ml of an assay buffer (25 mM Tris-HCl, 1 mM ethylenediaminetetraacetic acid (EDTA), 0.1% bovine serum albumin (BSA), 0.25 mM PMSF, 1 μg/ml pepstatin, 20 μg/ml leupeptin, 100 μg/ml phosphoramidon, 0.03% sodium azide; pH 7.5) and centrifuged at 100,000 xg for 1 hour. The membrane fraction recovered as a pellet was resuspended in 10 ml of the same assay buffer as above, distributed into vials, preserved at -80° C., and reconstituted before use. The rat and human membrane fractions prepared under (B) and (D) were respectively diluted with the assay buffer to make 200 μg/ml each and 188 μl aliquots of each dilution were distributed into tubes. The bovine membrane fraction prepared under (C) was diluted with the assay buffer to make 750 μg/ml and 188 μl aliquots of the dilution were distributed into tubes. When the rat anterior pituitary membrane fraction was used, 2 μl of 0.1 mM compound/60% dimethyl sulfoxide (DMSO) and 10 μl of 38 nM ^125 I-leuprolerin were concurrently added. […] For determination of maximum binding, a reaction mixture was prepared by adding 2 μl of 60% DMSO and 10 μl of 38 nM ^125 I-leuprolerin. For determination of non-specific binding, a reaction mixture was prepared using 2 μl of 100 μM leuprolerin/60% DMSO and 10 μl of […] ^125 I-leuprolerin. When the rat and bovine anterior pituitary membrane fractions were used, each reaction was carried out at 4° C. for 90 minutes. On the other hand, when the human GnRH receptor-expressed CHO cell membrane fraction was used, the reaction was conducted at 25° C. for 60 minutes. After completion of the reaction, the reaction mixture was suction-filtered through a polyethyleneimine-treated Whatman glass filter (GF-F) [trademark;whatman]. After filtration, the radioactivity of the residual ^125 I-leuprolerin on the filter was measured using a γ-counter. The computation formula of (TB-SB)/(TB-NSB)×100 (SB=radioactivity bound in the presence of the test compound, TB=maximum amount of radioactivity bound, NSB=amount of radioactivity nonspecifically bound) was calculated to find the binding inhibition rate for the test compound. Moreover, the inhibition rate was determined by varying the concentration of each test compound and the concentration of the compound causing 50% inhibition of binding (IC50 value) was calculated by Hill plot.

The text below walks through data of patent US5633248A, “Amine compounds, their production and use” (priority 1994, dated 1997).

Counter-ions that a name gives are not always drawn.

Turning to `COc1cc2c(cc1OC)CC1(CCCCN1CCCC(CCCNC(=O)Cc1cccc3ccccc13)(c1ccccc1)c1ccccc1)CC2` (stereo not drawn) [II-66, 3,4-Dihydro-6,7-dimethoxy-1'-{4,4-diphenyl-7-[(1-naphthylacetyl)amino]heptyl}spiro[naphthalene-2(1H),2'-piperidine] hydrochloride], the figures for the IC50 on Human GnRH receptor and on Rat GnRH Receptor were 0.3 µM and 0.003 µM, respectively.

For `COc1cc2c(cc1OC)CC1(CCCCN1CCCC(CCCNC(=O)Cc1ccc3c(c1)OCO3)(c1ccccc1)c1ccccc1)CC2` (stereo not drawn) [II-60, 3,4-Dihydro-6,7-dimethoxy-1'-{4,4-diphenyl-7-[(3,4-methylenedioxyphenylacetyl)amino]heptyl}spiro[naphthalene-2(1H),2'-piperidine] hydrochloride], the IC50 amounted to 0.1 µM on Human GnRH receptor and 0.002 µM on Rat GnRH Receptor.

As for `COc1ccc(CC(=O)NCCCC(CCCN2CCCCC23CCc2cc(OC)c(OC)cc2C3)(c2ccccc2)c2ccccc2)cc1OC` (stereo not drawn) [II-59, 3,4-Dihydro-6,7-dimethoxy-1'-{7-[(3,4-dimethoxyphenylacetyl)amino]-4,4-diphenylheptyl}spiro[naphthalene-2(1H),2'-piperidine] hydrochloride], the IC50 on Human GnRH receptor amounted to 0.4 µM; on Rat GnRH Receptor, 0.02 µM.

Turning to `COc1ccc(CC(=O)NCCCC(CCCN2CCCCC23CCc2cc(OC)c(OC)cc2C3)(c2ccccc2)c2ccccc2)cc1` (stereo not drawn) [II-58, 3,4-Dihydro-6,7-dimethoxy-1'-{4,4-diphenyl-7-[(4-methoxyphenylacetyl)amino]heptyl}spiro[naphthalene-2(1H),2'-piperidine] hydrochloride], the IC50 stood at 0.11 µM on Human GnRH receptor and 0.0016 µM on Rat GnRH Receptor.

As for `COc1ccc(CCC(=O)NCCCC(CCCN2CCCCC23CCc2cc(OC)c(OC)cc2C3)(c2ccccc2)c2ccccc2)cc1` (stereo not drawn) [II-65, 3,4-Dihydro-6,7-dimethoxy-1'-{4,4-diphenyl-7-{[3-(4-methoxyphenyl)propionyl]amino}heptyl}spiro[naphthalene-2(1H),2'-piperidine] hydrochloride], the concentration for half-maximal inhibition (IC50) at Human GnRH receptor was 0.02 µM; on Rat GnRH Receptor, 0.001 µM.

Consider `COc1cc2c(cc1OC)CC1(CCCCN1CCCC(CCCNC(=O)CCc1ccccc1)(c1ccccc1)c1ccccc1)CC2` (stereo not drawn) [II-64, 3,4-Dihydro-6,7-dimethoxy-1'-{4,4-diphenyl-7-[(3-phenylpropionyl)amino]heptyl}spiro[naphthalene-2(1H),2'-piperidine] hydrochloride], for which the IC50 at Human GnRH receptor was found to be 0.2 µM; at Rat GnRH Receptor, 0.009 µM.
